Assay results taken from ChEMBL document CHEMBL5380810, “Scaffold Hybrid of the Natural Product Tanshinone I with Piperidine for the Discovery of a Potent NLRP3 Inflammasome Inhibitor” (J Med Chem, 2023).
Each block holds one compound with its values, some of them ahead of it. Calls of active or inactive are those of the source. The calls are words filed in the database; no cut-off is given here.

Columns and labels:
Peritoneal macrophage [1] = assay: Antiinflammatory activity against LPS-stimulated mouse peritoneal macrophage assessed as IL-1beta level at 2 uM treated for 3 hrs followed by ATP addition measured after 30 mins by ELISA method relative to control; format: functional; settings: time 3.5 hrs
Peritoneal macrophage [2] = assay: Antiinflammatory activity against LPS-stimulated mouse peritoneal macrophage assessed as TNF-alpha level at 2 uM treated for 3 hrs followed by ATP addition measured after 30 mins by ELISA method relative to control; format: functional; settings: time 3.5 hrs
Peritoneal macrophage [3] = assay: Cytotoxicity against mouse peritoneal macrophages at 4 uM incubated for 3.5 hrs by MTT assay; format: toxicity, cell-based
Peritoneal macrophage [4] = assay: Antiinflammatory activity against LPS-stimulated mouse peritoneal macrophage assessed as IL-6 level at 2 uM treated for 3 hrs followed by ATP addition measured after 30 mins by ELISA method relative to control; format: functional; settings: time 3.5 hrs
[5] = target: NACHT, LRR and PYD domains-containing protein 3 (Mus musculus) (UniProt Q8R4B8); assay: Inhibition of NLRP3 inflammasome activation in LPS-stimulated mouse peritoneal macrophage assessed as inhibition of IL-1beta secretion at 2 uM treated for 3 hrs followed by ATP addition measured after 30 mins by Western blot analysis relative to control; format: cell-based; settings: time 3.5 hrs
NACHT, LRR and PYD domains-containing protein 3 (Mus musculus), sequence (Q8R4B8 whole entry, the tested form may be a part): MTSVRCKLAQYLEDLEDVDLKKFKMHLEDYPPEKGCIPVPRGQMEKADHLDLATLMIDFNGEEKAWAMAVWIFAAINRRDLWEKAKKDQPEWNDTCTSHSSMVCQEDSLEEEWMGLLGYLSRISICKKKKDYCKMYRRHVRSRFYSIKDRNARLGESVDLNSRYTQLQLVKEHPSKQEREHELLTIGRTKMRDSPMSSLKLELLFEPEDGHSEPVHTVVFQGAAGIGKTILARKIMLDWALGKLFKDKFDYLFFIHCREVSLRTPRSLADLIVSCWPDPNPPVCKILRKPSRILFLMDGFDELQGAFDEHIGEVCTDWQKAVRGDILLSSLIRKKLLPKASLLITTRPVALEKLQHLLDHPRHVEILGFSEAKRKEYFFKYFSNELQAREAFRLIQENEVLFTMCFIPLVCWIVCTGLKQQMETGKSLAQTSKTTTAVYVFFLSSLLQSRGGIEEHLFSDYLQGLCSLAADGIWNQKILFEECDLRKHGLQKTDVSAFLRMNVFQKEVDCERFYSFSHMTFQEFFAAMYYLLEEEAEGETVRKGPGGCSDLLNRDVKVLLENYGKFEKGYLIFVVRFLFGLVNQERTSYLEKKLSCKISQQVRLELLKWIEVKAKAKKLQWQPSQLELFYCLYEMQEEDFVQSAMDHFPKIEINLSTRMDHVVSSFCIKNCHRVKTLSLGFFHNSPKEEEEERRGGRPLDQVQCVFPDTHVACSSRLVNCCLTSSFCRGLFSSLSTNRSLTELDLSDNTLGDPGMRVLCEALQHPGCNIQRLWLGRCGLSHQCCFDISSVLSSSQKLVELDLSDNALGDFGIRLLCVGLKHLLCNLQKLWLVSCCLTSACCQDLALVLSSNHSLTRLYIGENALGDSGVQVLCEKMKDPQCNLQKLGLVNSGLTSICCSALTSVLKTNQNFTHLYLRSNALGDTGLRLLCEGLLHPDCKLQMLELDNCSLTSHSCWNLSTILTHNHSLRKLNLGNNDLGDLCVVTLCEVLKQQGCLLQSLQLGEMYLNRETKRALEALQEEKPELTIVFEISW

Peritoneal macrophage [6] = assay: Effect on pro-caspase-1 expression in LPS-stimulated mouse peritoneal macrophage at 2 uM treated for 3 hrs followed by ATP addition measured after 30 mins by Western blot analysis; format: functional, cell-based; settings: time 3.5 hrs
Peritoneal macrophage [7] = assay: Effect on pro-caspase-1 expression in ATP-induced LPS-primed mouse peritoneal macrophage cells at 2 uM treated for 3 hrs followed by ATP addition measured after 30 mins by Western blot analysis; format: functional, cell-based; settings: time 3.5 hrs
Mus musculus [8] = assay: Antiinflammatory activity in septic C57BL/6 mouse model assessed as reduction in LPS-induced inflammatory infiltration at 50 mg/kg, ip pretreated for 42 hrs followed by LPS injection measured after 6 hrs by H and E staining based analysis; format: functional, organism-based; settings: time 48.0 hrs
[9] = target: NACHT, LRR and PYD domains-containing protein 3 (Mus musculus) (UniProt Q8R4B8); assay: Inhibition of NLRP3 inflammasome activation in […] LPS-primed mouse peritoneal macrophage cells assessed as inhibition of IL-1beta secretion at 2 uM treated for 3 hrs followed by nigericin addition measured after 30 mins by ELISA method; format: cell-based; settings: time 3.5 hrs
Mus musculus [10] = assay: Antiinflammatory activity in septic C57BL/6 mouse model assessed as reduction in LPS-induced alveolar wall thickening at 50 mg/kg, ip pretreated for 42 hrs followed by LPS injection measured after 6 hrs by H and E staining based analysis; format: functional, organism-based; settings: time 48.0 hrs
Peritoneal macrophage [11] = assay: Effect on pro-IL-1beta expression in LPS-stimulated mouse peritoneal macrophage at 2 uM treated for 3 hrs followed by ATP addition measured after 30 mins by Western blot analysis; format: functional, cell-based; settings: time 3.5 hrs
[12] = target: NACHT, LRR and PYD domains-containing protein 3 (Mus musculus) (UniProt Q8R4B8); assay: Inhibition of NLRP3 inflammasome activation in ATP-induced LPS-primed mouse BMDM cells assessed as inhibition of IL-1beta secretion at 1 uM treated for 3 hrs followed by ATP addition measured after 30 mins by ELISA method; format: cell-based; settings: time 3.5 hrs
Peritoneal macrophage [13] = assay: Antiinflammatory activity against LPS-stimulated mouse peritoneal macrophage assessed as inhibition of IL-1beta secretion at 1 uM treated for 3 hrs followed by ATP addition measured after 30 mins by ELISA method; format: functional, cell-based; settings: time 3.5 hrs
Peritoneal macrophage [14] = assay: Effect on NLRP3 expression in ATP-induced LPS-primed mouse peritoneal macrophage cells at 2 uM treated for 3 hrs followed by ATP addition measured after 30 mins by Western blot analysis; format: functional, cell-based; settings: time 3.5 hrs
[15] = target: NACHT, LRR and PYD domains-containing protein 3 (Mus musculus) (UniProt Q8R4B8); assay: Inhibition of NLRP3 inflammasome activation in […] LPS-primed mouse peritoneal macrophage cells assessed as inhibition of IL-1beta secretion at 2 uM treated for 3 hrs followed by MSU addition measured after 30 mins by ELISA method; format: cell-based; settings: time 3.5 hrs
Peritoneal macrophage [16] = assay: Effect on pro-IL-1beta expression in ATP-induced LPS-primed mouse peritoneal macrophage cells at 2 uM treated for 3 hrs followed by ATP addition measured after 30 mins by Western blot analysis; format: functional, cell-based; settings: time 3.5 hrs
[17] = target: NACHT, LRR and PYD domains-containing protein 3 (Mus musculus) (UniProt Q8R4B8); assay: Inhibition of NLRP3 inflammasome activation in LPS-stimulated mouse peritoneal macrophage assessed as inhibition of caspase-1 secretion at 2 uM treated for 3 hrs followed by ATP addition measured after 30 mins by Western blot analysis relative to control; format: cell-based; settings: time 3.5 hrs
Mus musculus [18] = assay: Antiinflammatory activity in septic C57BL/6 mouse model assessed as decrease in LPS-induced IL-6 release at 50 mg/kg, ip pretreated for 42 hrs followed by LPS injection measured after 6 hrs by ELISA method; format: functional, organism-based; settings: time 48.0 hrs
Mus musculus [19] = assay: Antiinflammatory activity in septic C57BL/6 mouse model assessed as reduction in LPS-induced granulocyte count at 50 mg/kg, ip pretreated for 42 hrs followed by LPS injection measured after 6 hrs by H and E staining based analysis; format: functional, organism-based; settings: time 48.0 hrs
Peritoneal macrophage [20] = assay: Effect on ASC expression in ATP-induced LPS-primed mouse peritoneal macrophage cells at 2 uM treated for 3 hrs followed by ATP addition measured after 30 mins by Western blot analysis; format: functional, cell-based; settings: time 3.5 hrs
Mus musculus [21] = assay: Antiinflammatory activity in septic C57BL/6 mouse model assessed as decrease in LPS-induced IL-1beta release at 50 mg/kg, ip pretreated for 42 hrs followed by LPS injection measured after 6 hrs by ELISA method; format: functional, organism-based; settings: time 48.0 hrs
Peritoneal macrophage [22] = assay: Antiinflammatory activity against LPS-stimulated mouse peritoneal macrophage assessed as IL-6 level at 2 uM treated for 3 hrs followed by ATP addition measured after 30 mins by ELISA method; format: functional, cell-based; settings: time 3.5 hrs
[23] = Metabolic stability in human liver microsomes assessed as intrinsic clearance at 20 uM measured upto 120 mins in presence of NADPH by LC-MS/MS analysis; format: ADME, Microsome; settings: read-out: CLH
[24] = Metabolic stability in mouse liver microsomes assessed as half life at 20 uM measured upto 120 mins in presence of NADPH by LC-MS/MS analysis; format: ADME, Microsome
[25] = Metabolic stability in mouse liver microsomes assessed as intrinsic clearance at 20 uM measured upto 120 mins in presence of NADPH by LC-MS/MS analysis; format: ADME, Microsome; settings: read-out: CLH
[26] = Metabolic stability in human liver microsomes assessed as half life at 20 uM measured upto 120 mins in presence of NADPH by LC-MS/MS analysis; format: ADME, Microsome
Peritoneal macrophage [27] = assay: Antiinflammatory activity against LPS-stimulated mouse peritoneal macrophage assessed as inhibition of IL-1beta secretion treated for 3 hrs followed by ATP addition measured after 30 mins by ELISA method; format: functional, cell-based
Peritoneal macrophage [28] = assay: Antiinflammatory activity against LPS-stimulated mouse peritoneal macrophage assessed as IL-1beta level at 2 uM treated for 3 hrs followed by ATP addition measured after 30 mins by ELISA method; format: functional, cell-based; settings: time 3.5 hrs
[29] = Aqueous solubility of compound incubated for 24 hrs by HPLC analysis; format: physicochemical; settings: buffer

SMILES: Cc1cccc2c3c(ccc12)-c1oc2c(c1C(=O)C3=O)CCN(C)C2
Activity (Peritoneal macrophage [1]): 40%
Activity (Peritoneal macrophage [2]): 16%
Activity (Peritoneal macrophage [3]): Non-Toxic
Activity (Peritoneal macrophage [4]): 18%

SMILES: COC(=O)CCCN1CCc2c(oc3c2C(=O)C(=O)c2c-3ccc3c(C)cccc23)C1
Activity (Peritoneal macrophage [1]): 67%
Activity (Peritoneal macrophage [2]): 43%
Activity (Peritoneal macrophage [3]): Non-Toxic
Activity (Peritoneal macrophage [4]): 32%

SMILES: Cc1cccc2c3c(ccc12)-c1oc2c(c1C(=O)C3=O)CCNC2
Activity (Peritoneal macrophage [1]): 16%
Activity (Peritoneal macrophage [2]): 22%
Activity (Peritoneal macrophage [3]): Non-Toxic
Activity (Peritoneal macrophage [4]): 13%

SMILES: COC(=O)CN1CCc2c(oc3c2C(=O)C(=O)c2c-3ccc3c(C)cccc23)C1
Activity (Peritoneal macrophage [1]): 70%
Activity (Peritoneal macrophage [2]): 31%
Activity (Peritoneal macrophage [3]): Non-Toxic
Activity (Peritoneal macrophage [4]): 6%

SMILES: CNC(=O)CN1CCc2c(oc3c2C(=O)C(=O)c2c-3ccc3c(C)cccc23)C1
Activity (Peritoneal macrophage [1]): 92%
Activity (Peritoneal macrophage [2]): 36%
Activity (Peritoneal macrophage [3]): Non-Toxic
Activity (Peritoneal macrophage [4]): 19%

inhibition [5]: 100%
inhibition [9]: Active
inhibition [12]: Active
inhibition [15]: Active
inhibition [17]: 100%
SMILES: Cc1cccc2c3c(ccc12)-c1oc2c(c1C(=O)C3=O)CCN([C@H](CO)CCCO)C2
Activity (Peritoneal macrophage [6]): inactive
Activity (Peritoneal macrophage [7]): inactive
Activity (Mus musculus [8]): Active
Activity (Mus musculus [10]): Active
Activity (Peritoneal macrophage [11]): inactive
inhibition (Peritoneal macrophage [13]): Active
Activity (Peritoneal macrophage [14]): inactive
Activity (Peritoneal macrophage [16]): inactive
Activity (Mus musculus [18]): Active
Activity (Mus musculus [19]): Active
Activity (Peritoneal macrophage [20]): inactive
Activity (Mus musculus [21]): Active

inhibition [5]: 100%
inhibition [9]: Active
inhibition [12]: Active
inhibition [15]: Active
inhibition [17]: 100%
SMILES: Cc1cccc2c3c(ccc12)-c1oc2c(c1C(=O)C3=O)CCN(CCO)C2
Activity (Peritoneal macrophage [6]): inactive
Activity (Peritoneal macrophage [7]): inactive
Activity (Mus musculus [8]): Active
Activity (Mus musculus [10]): Active
Activity (Peritoneal macrophage [11]): inactive
inhibition (Peritoneal macrophage [13]): Active
Activity (Peritoneal macrophage [14]): inactive
Activity (Peritoneal macrophage [16]): inactive
Activity (Mus musculus [18]): Active
Activity (Mus musculus [19]): Active
Activity (Peritoneal macrophage [20]): inactive
Activity (Mus musculus [21]): Active
Activity (Peritoneal macrophage [22]): inactive

microsomal CLint at 20 µM [23]: 290 µL/min/mg
half-life at 20 µM [24]: 21.1 min
microsomal CLint at 20 µM [25]: 65.6 µL/min/mg
half-life at 20 µM [26]: 4.77 min
SMILES: Cc1coc2c1C(=O)C(=O)c1c-2ccc2c(C)cccc12 [TANSHINONE I]
Activity (Peritoneal macrophage [1]): 69%
Activity (Peritoneal macrophage [2]): 55%
Activity (Peritoneal macrophage [3]): Non-Toxic
Activity (Peritoneal macrophage [22]): inactive

IC50 (Peritoneal macrophage [27]): 273 nM
SMILES: Cc1cccc2c3c(ccc12)-c1oc2c(c1C(=O)C3=O)CCN(CCN1CCOCC1)C2
Activity (Peritoneal macrophage [1]): 99%
Activity (Peritoneal macrophage [2]): 26%
Activity (Peritoneal macrophage [3]): Non-Toxic
Activity (Peritoneal macrophage [22]): inactive

IC50 (Peritoneal macrophage [27]): 383 nM
SMILES: Cc1cccc2c3c(ccc12)-c1oc2c(c1C(=O)C3=O)CCN([C@@H](C)C(=O)N1CCN(C)CC1)C2
Activity (Peritoneal macrophage [1]): 97%
Activity (Peritoneal macrophage [2]): 33%
Activity (Peritoneal macrophage [3]): Non-Toxic
Activity (Peritoneal macrophage [22]): inactive

SMILES: Cc1coc2c1C(=O)C(=O)c1c-2ccc2c1CCCC2(C)C [TANSHINONE IIA]
Activity (Peritoneal macrophage [28]): inactive
Activity (Peritoneal macrophage [2]): 19%
Activity (Peritoneal macrophage [3]): Non-Toxic
Activity (Peritoneal macrophage [4]): 16%

solubility [29]: 6.34 µg/mL
SMILES: Cc1cccc2c3c(ccc12)-c1oc2c(c1C(=O)C3=O)CCN([C@H](CO)CCCO)C2.Cl
Activity (Peritoneal macrophage [1]): 96%
Activity (Peritoneal macrophage [2]): 16%
Activity (Peritoneal macrophage [3]): Non-Toxic
Activity (Peritoneal macrophage [4]): 6%
